Literature values in article PMC6024615, “Effect of Biliary Drainage on the Toxicity and Toxicokinetics of Amanita exitialis in Beagles” (Toxins, 2018).

Key:
[1] = human and rats; cited from earlier work
Description: Vesconi et al. found amatoxins were detectable in the serum of 65% patients within 30 h after ingestion of Amanita phalloides. In another study in patients intoxicated with Amanita phalloides, amatoxins were detectable in the plasma of most patients within 36 h after ingestion. […] These toxins were rapidly detected (30 min) in plasma and ...

[2] = intravenous injection, general anesthesia, radioactivity; cited from earlier work
Description: In previous studies, the radioactivity of labeled amatoxins in the serum of dogs or pigs was determined after an intravenous injection of amatoxins; bile was collected and measured using tubes tied to the bile duct under general anesthesia. More than 80% of 14C-methyl-γ-amanitin (14C-A) was eliminated in the urine, with less than 10% in the bile. Different toxin exposure patterns might result in different toxicokinetic data. 14C-A and 3H-O-methyl-dehydroxymethyl-α-amanitin (3H-A) were used for toxicokinetic studies in the animals; the animals were under general anesthesia du ...

Substance	reduction in absorption from the intestinal lumen caused by bile exclusion [1]	share eliminated in the bile [2]	share eliminated in the urine [2]
vitamin B12	50–60%		
14C-methyl-γ-amanitin		less than 10%	More than 80%
